Experimental data reported in the supplement of paper PMC10307832.

What was measured:
Assay in all cases: relative viability (nuclei count vs DMSO), 5 days (fraction); higher = more cells survive
MLN4924 + Trametinib = compound: NS(=O)(=O)OC[C@@H]1C[C@@H](n2ccc3c(N[C@H]4CCc5ccccc54)ncnc32)C[C@@H]1O [MLN4924] + CC(=O)Nc1cccc(-n2c(=O)n(C3CC3)c(=O)c3c(Nc4ccc(I)cc4F)n(C)c(=O)c(C)c32)c1 [Trametinib] (partner 0.02 µM)
Outline: (§1)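 Relative viability was taken as the ratio of nuclei in treated wells to nuclei in vehicle wells. Lung cancer cell lines in 1536-well plates received compounds by pin tool one day after seeding, either one drug alone or a fixed anchor-drug dose plus five library-drug doses (not always all listed) in √10 steps. Nuclei were counted on 4× images after 5 days of treatment, and values are medians of duplicate plates.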

Carboplatin + Olaparib = compound: C1CC(C1)(C(=O)O)C(=O)O.[NH2-].[NH2-].[Pt+2] [Carboplatin] + O=C(c1cc(Cc2n[nH]c(=O)c3ccccc23)ccc1F)N1CCN(C(=O)C2CC2)CC1 [Olaparib] (partner 8 µM)
Outline: as §1

GSK126 + Pictilisib = compound: CC[C@H](C)N1C=C(C2=C(C=C(C=C21)C3=CN=C(C=C3)N4CCNCC4)C(=O)NCC5=C(C=C(NC5=O)C)C)C [GSK126] + CS(=O)(=O)N1CCN(Cc2cc3nc(-c4cccc5[nH]ncc45)nc(N4CCOCC4)c3s2)CC1 [Pictilisib] (partner 1 µM)
Outline: as §1

GSK126 + Pemetrexed = compound: CC[C@H](C)N1C=C(C2=C(C=C(C=C21)C3=CN=C(C=C3)N4CCNCC4)C(=O)NCC5=C(C=C(NC5=O)C)C)C [GSK126] + Nc1nc2[nH]cc(CCc3ccc(C(=O)N[C@@H](CCC(=O)O)C(=O)O)cc3)c2c(=O)[nH]1 [Pemetrexed] (partner 0.2 µM)
Outline: as §1

Row | Cell Line | relative viability (MLN4924 + Trametinib; first compound 0.04 µM) | relative viability (MLN4924 + Trametinib; first compound 0.1265 µM) | relative viability (MLN4924 + Trametinib; first compound 0.4 µM) | relative viability (MLN4924 + Trametinib; first compound 1.265 µM) | relative viability (MLN4924 + Trametinib; first compound 4 µM) | relative viability (Carboplatin + Olaparib; first compound 0.08 µM) | relative viability (Carboplatin + Olaparib; first compound 0.253 µM) | relative viability (Carboplatin + Olaparib; first compound 0.8 µM) | relative viability (Carboplatin + Olaparib; first compound 2.53 µM) | relative viability (Carboplatin + Olaparib; first compound 8 µM) | relative viability (GSK126 + Pictilisib; first compound 0.08 µM) | relative viability (GSK126 + Pictilisib; first compound 0.253 µM) | relative viability (GSK126 + Pictilisib; first compound 0.8 µM) | relative viability (GSK126 + Pictilisib; first compound 2.53 µM) | relative viability (GSK126 + Pictilisib; first compound 8 µM) | relative viability (GSK126 + Pemetrexed; first compound 0.08 µM) | relative viability (GSK126 + Pemetrexed; first compound 0.253 µM) | relative viability (GSK126 + Pemetrexed; first compound 0.8 µM) | relative viability (GSK126 + Pemetrexed; first compound 2.53 µM) | relative viability (GSK126 + Pemetrexed; first compound 8 µM)
1 | NCI-H441 | 0.576 | 0.508 | 0.598 | 0.152 | 0.19 | 0.465 | 0.497 | 0.499 | 0.486 | 0.259 | 0.495 | 0.638 | 0.432 | 0.539 | 0.428 | 0.289 | 0.281 | 0.272 | 0.248 | 0.267
2 | NCI-H1395 | 1.07 | 1.02 | 0.836 | 0.392 | 0.385 | 0.509 | 0.467 | 0.505 | 0.41 | 0.46 | 0.653 | 0.653 | 0.798 | 0.699 | 0.726 | 0.942 | 0.773 | 0.867 | 0.988 | 0.759
3 | NCI-H2023 | 0.549 | 0.495 | 0.328 | 0.0604 | 0.0809 | 0.473 | 0.445 | 0.415 | 0.231 | 0.135 | 0.26 | 0.253 | 0.247 | 0.306 | 0.256 | 0.251 | 0.231 | 0.224 | 0.268 | 0.13
4 | NCI-H1666 | 0.762 | 0.601 | 0.615 | 0.429 | 0.51 | 0.741 | 0.704 | 0.707 | 0.672 | 0.657 | 0.558 | 0.483 | 0.379 | 0.384 | 0.528 | 0.872 | 0.936 | 0.766 | 0.796 | 0.807
5 | HCC-15 | 0.362 | 0.279 | 0.191 | 0.105 | 0.106 | 0.664 | 0.729 | 0.693 | 0.57 | 0.492 | 0.767 | 0.709 | 0.698 | 0.673 | 0.676 | 0.221 | 0.229 | 0.224 | 0.215 | 0.238
6 | NCI-H3122 | 0.25 | 0.162 | 0.204 | 0.136 | 0.098 | 0.644 | 0.584 | 0.562 | 0.559 | 0.622 | 0.61 | 0.597 | 0.595 | 0.684 | 0.703 | 0.203 | 0.208 | 0.185 | 0.204 | 0.209
7 | 201T | 0.786 | 0.676 | 0.523 | 0.3 | 0.322 | 0.869 | 0.836 | 0.872 | 0.822 | 0.774 | 0.686 | 0.8 | 0.738 | 0.691 | 0.728 | 0.346 | 0.342 | 0.329 | 0.367 | 0.328
8 | RERF-LC-KJ | 0.8 | 0.66 | 0.365 | 0.215 | 0.203 | 1.03 | 0.866 | 0.884 | 0.657 | 0.416 | 0.551 | 0.554 | 0.589 | 0.529 | 0.55 | 0.462 | 0.465 | 0.443 | 0.462 | 0.461
9 | ChaGo-K-1 | 0.763 | 0.411 | 0.392 | 0.186 | 0.174 | 0.43 | 0.409 | 0.376 | 0.332 | 0.362 | 0.831 | 0.656 | 0.746 | 0.722 | 0.649 | 0.256 | 0.269 | 0.265 | 0.256 | 0.254
10 | NCI-H1734 | 0.705 | 0.715 | 0.181 | 0.123 | 0.126 | 0.598 | 0.623 | 0.522 | 0.574 | 0.423 | 0.49 | 0.403 | 0.408 | 0.43 | 0.45 | 0.406 | 0.411 | 0.463 | 0.448 | 0.461
11 | NCI-H1651 | 0.799 | 0.853 | 0.81 | 0.512 | 0.185 | 0.191 | 0.199 | 0.185 | 0.166 | 0.161 | 0.55 | 0.548 | 0.601 | 0.608 | 0.584 | 0.651 | 0.594 | 0.566 | 0.67 | 0.636
12 | PC-14 | 1.01 | 0.624 | 0.259 | 0.0838 | 0.0619 | 0.266 | 0.266 | 0.171 | 0.118 | 0.0838 | 0.684 | 0.667 | 0.59 | 0.693 | 0.656 | 0.131 | 0.133 | 0.135 | 0.155 | 0.148
13 | NCI-H358 | 0.167 | 0.137 | 0.138 | 0.115 | 0.0882 | 0.713 | 0.636 | 0.593 | 0.498 | 0.43 | 0.32 | 0.347 | 0.37 | 0.332 | 0.442 | 0.184 | 0.182 | 0.174 | 0.166 | 0.197
14 | NCI-H1915 | 0.346 | 0.39 | 0.403 | 0.261 | 0.167 | 0.253 | 0.257 | 0.225 | 0.22 | 0.21 | 0.937 | 0.874 | 1.04 | 0.941 | 0.927 | 0.573 | 0.484 | 0.504 | 0.477 | 0.484
15 | NCI-H1975 | 0.344 | 0.544 | 0.44 | 0.38 | 0.312 | 0.961 | 0.79 | 0.735 | 0.747 | 0.747 | 0.328 | 0.301 | 0.321 | 0.291 | 0.274 | 0.276 | 0.306 | 0.304 | 0.305 | 0.277
